According to US20250352675A1, “CA-IX TARGETING FLUORESCENT PROBES” (BRACCO IMAGING S.P.A., priority 2022, published 2025):

target: T1, recombinant bovine CAII enzyme (bCAII) (Bos taurus, UniProt P00921); assay: Dansylamide (DNSA) displacement fluorescence assay on carbonic anhydrase catalytic site; format: binding; conditions: 0.25 μM bCAII, 5 μM DNSA, 20 mM Tris pH 8; triplicate; read-out: CAII receptor affinity (KD)
T1 construct: purchased Sigma-Aldrich; host or cells: E. coli
Description: The binding affinity of the compounds of formula (I) to Carbonic Anhydrase (CA) catalytic site was determined to assess the targeting efficacy of the molecular vectors, even after labeling the targeting ligand with the fluorescent portion of the probe.
Such enzyme in fact is highly available and has a catalytic site with high degree of homology in different carbonic anhydrase isoforms (Aggarwal M. et al., J Enzyme Inhib Med Chem 2013; 28(2): 267-277).
The dissociation constant (Ko) of compounds of formula (I) for bCAII was estimated by performing a fluorescence-based assay, exploiting the drop of fluorescence deriving from the displacement of carbonic anhydrase-bound dansylamide (DNSA) in presence of competitors and was adapted for application in 96-well plates from Wang S C et al., Biochem Mol Biol Educ. 2006, 34(5): 364-368. […] In both cases DNSA is excited at about 320 nm. Thus, excitation of carbonic anhydrase aromatic residues (Trp) at 285 nm generates an emission at 340 nm, that is quenched in presence of bound DNSA. The quenching occurs by FRET (fluorescence resonance energy transfer) to bound DNSA, which is in turn excited, emitting at 460 nm.
Molecules that bind to CA in the same binding site of DNSA, such as sulfonamides or derivatives, competitively displace DNSA from CA. The degree of displacement is function of the affinity of competitors and can be followed through the drop of fluorescence at 460 nm.
In detail, 5-(Dimethylamino)-1-naphthalenesulfonamide (dansylamide, DNSA, Sigma-Aldrich 218898) was reconstituted in 20 mM Tris pH 8, aliquoted and stored at −20° C.; bCAII (recombinant, expressed in E. Coli, Sigma-Aldrich) was divided in aliquots and stored at −20° C.
DNSA fluorescence emission at 462 nm from each well was recorded after excitation at 285 nm (Trp wavelength of excitation) and consequent selective excitation of DNSA bound to bCAII by FRET. Fractional saturation of bCAII was experimentally determined through normalization of fluorescence data between 1 (no compounds) and 0 (maximal DNSA displacement by presence of binding competitors), according to the equation below: […]
where r is fractional saturation, FLobs is the recorded fluorescence intensity, FLmin is the fluorescence intensity recorded at maximal concentration of compounds, and FLmax is fluorescence recorded in absence of compounds.
The KD of CA-binding compounds (=KDcomp) was then derived by mathematical fitting of experimental data according to the equation: […]
Mathematical fitting was performed using Microsoft Excel Solver.
All compounds were tested in triplicate.

T1 sequence (P00921 whole entry): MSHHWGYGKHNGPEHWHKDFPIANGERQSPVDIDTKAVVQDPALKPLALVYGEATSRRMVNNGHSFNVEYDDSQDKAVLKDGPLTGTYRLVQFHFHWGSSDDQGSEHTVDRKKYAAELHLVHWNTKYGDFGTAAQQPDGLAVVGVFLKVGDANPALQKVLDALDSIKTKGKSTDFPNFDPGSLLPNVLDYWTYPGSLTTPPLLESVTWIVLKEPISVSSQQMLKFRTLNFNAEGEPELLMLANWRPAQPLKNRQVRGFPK

`CC1(C)C(/C=C/C2=C(Oc3ccc(S(=O)(=O)O)cc3)C(=C/C=C3/N(CCCCS(=O)(=O)O)c4ccc(S(=O)(=O)O)cc4C3(C)C)/CCC2)=[N+](CCCCS(=O)(=O)[O-])c2ccc(C(=O)NCCCCCCCC(=O)Nc3nnc(S(N)(=O)=O)s3)cc21` [Compound 3] and `CC1(C)C(/C=C/C=C/C=C/C=C2/N(CCCCS(=O)(=O)O)c3ccc(S(=O)(=O)O)cc3C2(C)C)=[N+](CCCCS(=O)(=O)[O-])c2ccc(C(=O)NCCCCCCCC(=O)Nc3nnc(S(N)(=O)=O)s3)cc21` [Compound 2] are within error of each other in Kd: 3.8 ± 0.5 nM for the first, 3.7 ± 0.3 nM for the second.

For `CC1(C)C(/C=C/C=C/C=C/C=C2/N(CCCCS(=O)(=O)O)c3ccc(C(=O)NC[C@H](O)[C@@H](O)[C@H](O)[C@H](O)CO)cc3C2(C)C)=[N+](CCCCS(=O)(=O)[O-])c2ccc(C(=O)NCCCCCCCC(=O)Nc3nnc(S(N)(=O)=O)s3)cc21` [Compound 1], the Kd was 6.2 ± 0.6 nM.
